# Assay results published in patent US8530427B2, “Methods for modulating resistance to apoptosis using KLK6” (Mayo Foundation for Medical Education and Research, priority 2010, dated 2013).
# Legend:
# [1] = test system: U251 human glioblastoma cell line; assay: U251 glioblastoma cell death / apoptosis by flow cytometry; assay type: cell-based; settings: 1 μM
# Method: The percent of cells labeled with propidium iodide (PI) after 24 hour exposure to staurosporine (1 μM) shown in histogram (FIG. 15A) was quantified by flow cytometry (FIG. 15B) and is taken as a measure of cell death. All samples were treated and analyzed in triplicate.
# Levels of live (Annexin V− and Propidium iodide− (PI−)), early apoptotic (Annexin V+ and PI−), or dead (Annexin V+ and PI+) cells were determined by flow cytometry after a 24 hour period of exposure to 1 μM staurosporine (FIG. 16B) or staurosporine in the presence of 10 μg/mL KLK6 (FIG. 16C).
# Dead cells were detected by labeling with 7-AAD. […] All expression data were normalized to the constitutively expressed gene GAPDH (*P<0.05, Students t-test).
# KLK6 polypeptides promoted the survival of human glioma cells. […] Cell death was measured by flow cytometric detection of propidium iodide labeling.
# [2] = test system: Oli Neu oligodendrocyte cell line; assay: Oli Neu oligodendrocyte cell death, PI flow cytometry; assay type: cell-based, murine; settings: 0.5 μM; 18 hour exposure
# Text: KLK6 polypeptides promoted the survival of murine oligodendrocytes in a dose dependent fashion. […] Cell death was detected by PI labeling and quantitatively analyzed by flow cytometry.
# murine splenocytes [3] = assay: Murine splenocyte/lymphocyte cell death, PI labeling by flow cytometry; assay type: cell-based; settings: resting conditions; 1 or 10 μg/mL at plating; 24 and 72 hours
# Text: The effect of KLK6 polypeptides on immune cell survival was examined using whole splenocyte populations derived from C57BL6/J or PAR1 deficient mice or using the Jurkat T-leukemic cell line (clone E6-1, TIB-152 American Type Culture Collection). Eight to 12 week old C57 mice were obtained from Jackson Laboratories. Mice deficient in PAR1^-/- (B6.129S4-[…]^tm1Ajc/J) were also obtained from Jackson and backcrossed to C57BL6/J for 10 generations such that C57 mice served as wild type controls in each experiment. Spleens were homogenized in RPMI-1640, red blood cells lysed with ammonium chloride buffer, and splenocytes cultured in tissue culture treated 96 well plates at a density of 7.5×10^5 cells/mL. All experiments were performed in serum free X-Vivo media (Lonza, Mapleton, Ill.) containing 2 mM Glutamax, 1 mM sodium pyruvate, 50 U/mL penicillin-streptomycin, 10 mM HEPES, 50 μM 2-β-mercaptoethanol, and 10 μM non-essential amino acids (Invitrogen). Jurkat T cells were maintained in log-phase growth in the same defined media. The cells were maintained at 37° C. in 95% air and 5% CO2. […] Cells were analyzed by flow cytometry using a FACSCalibur flow cytometer (BD Biosciences, Mountain View, Calif.). […] FlowJo software (Ashland, Oreg.) was used to quantify different cell populations in flow cytometry experiments. […]
# murine splenocytes [4] = assay: Splenocyte proliferation, CFSE labeling by flow cytometry; assay type: cell-based
Molecule,cell death induced by staurosporine [1],cell death induced by staurosporine [2],cell death / cell survival (murine splenocytes [3]),"percent of divided cells (murine splenocytes [4]; 10 μg/mL, 24 hours post-stimulation)","proliferation (murine splenocytes [4]; lower concentrations, or 72 hours post-exposure)"
CN[C@@H]1C[C@H]2O[C@@](C)([C@@H]1OC)n1c3ccccc3c3c4c(c5c6ccccc6n2c5c31)C(=O)NC4 [staurosporine],induced a considerable increase in cell death,shown to promote death of the Oli Neu oligodendrocyte cell line,–,–,–
"KLK1 polypeptides: recombinant kallikrein family member KLK1, produced in an identical fashion to KLK6",–,–,did not significantly impact cell survival,significant increase in the percent of divided cells,Significant differences in proliferation were not seen
